Measurements reported in US10576050B2, “Methods and compositions for treatment of cancer” (ONCONOVA THERAPEUTICS, INC., priority 2012, dated 2020).
“And” between values parts separate entries of the source, which are not always exact repeats. Identical values can stand only once.

Columns and labels:
[1] = Phase II randomized two-arm study of oral Rigosertib (560 mg bid, intermittent or continuous) in transfusion-dependent lower risk MDS patients; conditions: for median duration of treatment: FIG. 5
Protocol: Methods: This is a randomized, two-arm study of oral Rigosertib (560 mg bid) administered either intermittently (2 out of 3 weeks) or continuously. Transfusion-dependent patients received at least 4 units RBC transfusions over 8 weeks before randomization as well as transfusions and erythrocyte stimulating agents (ESAs) while on study.
The study design in low or independent transfusion-dependent MDS patients: 43 patients enrolled and randomized 1:1 in two groups. The first group was administered 560 mg capsules BID in days 1-14 of 21 day cycle. The second group was administered 560 mg capsules BID in days 1-21 of 21 day cycle. […] The protocol was amended for the […] on intermittent dosing.
In these cases 560 mg bid dosing was replaced with 560 mg am (30 min+ before breakfast) and 280 mg 2 hs+ after lunch and 30 min+ before dinner. Dysuria questionnaire (American Urological Association) was provided to all patients at baseline, 3 weeks and every 3 cycles thereafter and recommend for vigorous hydration and bicarbonate prn.
The ongoing phase II trial 09-05 is designed to evaluate oral Rigosertib as a single agent in transfusion-dependent lower risk MDS patients. This trial is a randomized, two-arm study of oral Rigosertib (560 mg bid) administered either intermittently (2 out of 3 weeks) or continuously. Transfusion-dependent patients must have received at least 4 units of RBC transfusions over 8 weeks before randomization and can receive transfusions and erythrocyte stimulating agents (ESAs) while on study.

[2] = Dose escalation of oral Rigosertib twice daily in patients with refractory solid tumors; assay type: in vivo, human; conditions: BID continuously, 25 patients
Protocol: Twenty-five patients with histologically confirmed solid tumors refractory to standard therapy were given escalating doses of oral Rigosertib twice daily. Doses were increased according to a schedule until the appearance of grade 2 or grade 3/4 toxicities. The maximum tolerated dose (MTD) of oral Rigosertib administered twice daily continuously is 560 mg BID. Dysuria was identified as a potential dose-limiting adverse event and a reported toxicity. […] The antitumor activity in this study supported past observations of Rigosertib efficacy in other solid tumor clinical trials. Pharmacokinetic (PK) data reveal plasma levels with oral Rigosertib were above the predicted pharmacodynamically active levels. Final safety and efficacy results, plasma and urinary PK relationships, and mutational analyses from archival tissue are presented

[3] = Phase I/II study of Rigosertib continuous IV infusion in relapsed or refractory AML or transformed MPN; conditions: for concentration at 6 h: human, in vivo, 2400 mg/day, average plasma levels, 2400 mg/day CIV
Protocol: (§1) Methods: The patients were >18 years of age with relapsed or refractory AML or transformed myeloproliferative neoplasms (MPN). Patients were given Rigosertib by continuous IV infusions over 24 hours with a fixed dose of 2400 mg/day either for 72 hrs or 120 hrs every other week using a standard dose escalation scheme. A blood sample was withdrawn at 6 hrs after the start of infusion during cycle 1 and cycle 2 to assess the plasma concentration of Rigosertib. The study was subsequently amended and, after 2 cycles of IV Rigosertib (each cycle being 2 weeks) patients received Rigosertib orally, 560 mg twice a day continuously for 20 weeks. The objectives of Phase I study were to define maximum tolerated dose (MTD), dose limiting toxicities (DLT), and identify all toxicities and anti-leukemia activity. Phase II primary objective was to determine the clinical efficacy; secondary objectives were to assess time to response or progression, duration of response and overall survival at 6 months.
as §1, with “Patients with” for “Methods: The patients were >18 years of age with”, “neoplasms (MPN)” for “neoplasms (MPN). Patients”, “hours (hrs)” for “hours”, “of phase 1” for “of Phase I”, “(DLT),” for “(DLT), and”, “Phase 2” for “Phase II”

[4] = 34 patients dosed intermittently
[5] = individual transfusion responders

With `COc1cc(OC)c(/C=C/S(=O)(=O)Cc2ccc(OC)c(NCC(=O)[O-])c2)c(OC)c1.[Na+]` [Rigosertib, sodium (E)-2-{2-methoxy-5-[(2′,4′,6′-trimethoxystyrylsulfonyl)methyl]phenylamino}acetate] the “overall tolerability of oral Rigosertib” value ([1]; 560 mg bid) was “well tolerated”, the “patients achieving TI, intent-to-treat analysis” value ([1]; 14/39 patients, intermittent dosing) was 36% and the “patients achieving transfusion independence” value ([1]; 15 patients treated with intermittent dosing for at least 8 weeks) was 47%. For the same molecule, the “median duration of transfusion independence” value ([1]; 15 responders, intermittent dosing (conclusion)) was 17 weeks, the “patients achieving TI, intent-to-treat analysis” value ([1]; 17/48 patients (conclusion)) was 35% and the “patients with transfusion independence” value ([1]; 26 evaluable patients (8 wks+ treatment), intermittent 560 mg bid, FIG. 9) was 50% and 46%. For the same molecule, the “Abdominal Pain/discomfort, GRADE 2 incidents” value [1, 4] was 1, the “Abdominal Pain/discomfort, GRADE 3 incidents” value [1, 4] was 0 and the “Abdominal Pain/discomfort, TOTAL %” value [1, 4] was 3%. The “Diarrhea, GRADE 2 incidents” value [1, 4] was 1, the “Diarrhea, GRADE 3 incidents” value [1, 4] was 0 and the “Diarrhea, TOTAL %” value [1, 4] was 3%. The “Fatigue, GRADE 2 incidents” value [1, 4] was 5, the “Fatigue, GRADE 3 incidents” value [1, 4] was 0 and the “Fatigue, TOTAL %” value [1, 4] was 15%. The “Hematuria or Cytitis, GRADE 2 incidents” value [1, 4] was 1, the “Hematuria or Cytitis, GRADE 3 incidents” value [1, 4] was 5 and the “Hematuria or Cytitis, TOTAL %” value [1, 4] was 18%. For the same molecule, the “Insomnia, GRADE 2 incidents” value [1, 4] was 1, the “Insomnia, GRADE 3 incidents” value [1, 4] was 0 and the “Insomnia, TOTAL %” value [1, 4] was 3%. The “Nausea, GRADE 2 incidents” value [1, 4] was 3, the “Nausea, GRADE 3 incidents” value [1, 4] was 0 and the “Nausea, TOTAL %” value [1, 4] was 9%. The “Neutropenia, GRADE 2 incidents” value [1, 4] was 2, the “Neutropenia, GRADE 3 incidents” value [1, 4] was 2 and the “Neutropenia, TOTAL %” value [1, 4] was 6%. For the same molecule, the “Urinary urgency, GRADE 2 incidents” value [1, 4] was 12, the “Urinary urgency, GRADE 3 incidents” value [1, 4] was 0 and the “Urinary urgency, SAE” value [1, 4] was 1. For the same molecule, the “Urinary urgency, TOTAL %” value [1, 4] was 35%, the “patients achieving transfusion independence” value ([1]; 36 patients on intermittent dosing treated for at least 8 consecutive weeks) was 39% and the “Responders (overall transfusion response)” value (“Responders” below) ([1]; Continuous regimen) was 2. The “Responders” value ([1]; Intermittent regimen) was 13, the “Responders” value ([1]; Total) was 15 and the “patients with grade 2+ urinary side effects” value ([1]; continuous dosing arm) was 5 of 9. For the same molecule, the “median duration of treatment” value ([1]; continuous dosing, 9 patients) was 24 weeks, the “patients achieving transfusion independence” value ([1]; continuous dosing, nine patients (8 treated for at least 8 weeks)) was “two” and the patients progressed ([1]; four evaluable RAEB patients) was “one”. For the same molecule, the “patients achieving bone marrow complete response according to IWG 2006 criteria” value ([1]; four evaluable RAEB patients, one unconfirmed) was “three”, the “Response (bone marrow, IWG 2006 criteria)” value ([1]; individual RAEB-1/RAEB-2 patients) was “BMCR (2×) and BMCRu” and the “Response week Duration (transfusion independence)” value [1, 5] was ≥ 48 weeks and ≥ 37 weeks and 17 weeks and 37+ weeks and 9 weeks and 28 weeks and 30 weeks and 8 weeks and 17+ weeks and 12 weeks and 14+ weeks and 48+ weeks. The “Response week Onset (transfusion response)” value [1, 5] was 1 weeks (8×) and 24 weeks and 14 weeks and 4 weeks and 19 weeks and 13 weeks, the “patients with urinary grade 2+ toxicity” value ([1]; intermittent dosing with option of dose interruption/reduction) was 4/20 and the “median duration of treatment” value ([1]; intermittent dosing, 34 patients) was “not reached”. For the same molecule, the “patients achieving transfusion independence” value ([1]; intermittent dosing, at least 8 consecutive weeks, 15 patients (conclusion)) was 45%, the “interaction between Rigosertib and ESA” value ([1]; lower-risk transfusion dependent MDS, concomitant ESA) was “synergy” and the “patients developing grade 2 urinary toxicity” value ([1]; twelve patients, 560 mg AM and 280 mg PM, median 6 weeks) was “one”. The “Bone marrow blast values” ([1]; week 15 follow-up, individual RAEB-1/RAEB-2 patients) was 4% and 10% and 77% and 3%, the “Bone marrow blast values” ([1]; week 30 follow-up, individual RAEB-1/RAEB-2 patients) was 4% and 9% and the “Bone marrow blast values” ([1]; week 45 follow-up, individual RAEB-1/RAEB-2 patients) was 5%. The “Bone marrow blast values” ([1]; week 60 follow-up, individual RAEB-1/RAEB-2 patients) was 5%, the “maximum tolerated dose (MTD)” value [2] was 560 mg and the “patients with transient hematologic response with improvement of platelets” value ([3]; 4 patients) was 16%. For the same molecule, the “absolute reduction of peripheral blasts (best response, stabilization of disease)” value ([3]; after 2 cycles) was > 50%, the “patients with stabilization of disease with >50% absolute reduction of peripheral blasts” value ([3]; after 2 cycles, 2/25 patients) was 8% and the “patients with peripheral blasts maintained at +/−10% of pretreatment level” value ([3]; after 2 cycles, 4 patients) was 16%. The concentration at 6 h ([3]; week 1, 6 hrs after start of infusion) was 9.2 ± 5.05 µM, the concentration at 6 h ([3]; week 3, 6 hrs after start of infusion) was 9.81 ± 6.7 µM and the toxicity profile ([3]; main adverse event transient AMS (altered mental status)) was “acceptable toxicity profile”. For the same molecule, the DLT dose ([3]; over 24 hrs) was 2400 mg and the MTD ([3]; over 24 hrs for 3 days, CIV) was 2400 mg.
